Test results as given in US20030072828A1, “Natural therapeutic composition for the treatment of wounds and sores” (priority 2001, published 2003).

Tests used:
[1] = Personal experience: component topically applied to scalds; format: in vivo
Excerpt: (§1) From personal experience we have discovered the following traits associated with the specific components of the invention: […]

[2] = Personal experience: component topically applied to the skin of the face; format: in vivo
Excerpt: as §1

[3] = Personal experience: general traits of components; conditions: from personal experience
Excerpt: as §1

## Vitamin E
[1]
  pain and healing of the wound: reduced pain and improved healing of the wound

## Vitamin A
[2]
  appearance of the skin: improved appearance of the skin

## O=C1O[C@H]([C@@H](O)CO)C(O)=C1O [Vitamin C]
[3]
  trait of the component: combating pain and inflammation
